# Where two headings read alike, the source gives them in different places.
# Tested on: Spodoptera littoralis
# Assay: Insecticidal bioassay screening (castor leaf dip) on larvae of the laboratory strain of cotton leafworm
# Format: in vivo
# Settings: for Toxicity index %: 72 hrs, Diflubenzuron's LC50 / compound's LC50 x 100; for LC90 (mg/L) at 95%: laboratory strain, after 72 hrs of treatment; for LC50: Spodoptera littoralis, foliar
# Procedure: Five concentrations (200, 100, 50, 25, 12.5 ppm) were designed for this synthetic compound and the reference Diflubenzuron compound as the dynamic ingredients based on ppm via diluting the commercial formulation.
# In this experiment, castor leaves are immersed in each of the previously prepared concentrations of the components for 10 seconds and then left to dry for 60 minutes. Larvae of the second and fourth instars of each checked strain are prepared with treated leaves in gauze-covered glass containers for 72 hrs. An untreated control is made in which leaves are dipped in triton x-100 and distilled water only. Then the preserved leaves were removed & fresh, untreated leaves were provided for 72 hours. Three replicates (10 larvae each) were checked for each concentration. Daily inspection was carried out for all treatments and mortality percentages were recorded 3 days (72 hours) after treatment. The average mortality percentage was corrected employing Abbott's formula. The corrected mortality rate for each of the previously synthesized compounds is statistically calculated according to Finney (1970). Through this rate, the corresponding concentration test lines (LDP lines) are assessed.
# [1] = 72 h, read-out: LC50 (mg/L) at 95%, 2nd instar larvae, laboratory strain, after 72 hrs of treatment
# [2] = 72 h, read-out: LC50 (mg/L) at 95%, 4th instar larvae, laboratory strain, after 72 hrs of treatment
Compound,Toxicity index % (2nd instar larvae),LC90 (mg/L) at 95% (2nd instar larvae),Toxicity index % (4th instar larvae),LC90 (mg/L) at 95% (4th instar larvae),LC50 [1],LC50 [2],"activity against Spodoptera littoralis (result in words, from Table 1 and FIGS. 2A-2B, 72 h)","LC50 (against Spodoptera littoralis under laboratory conditions, instar not stated)"
"Cc1cc(C)nc(NC(=S)NC(=O)c2cccnc2)n1 [Compound 2, N-[(4,6-Dimethylpyrimidin-2-yl)carbamothioyl]pyridine-3-carboxamide]",31.8%,2112.3 mg/L,44.9%,5732.3 mg/L,~142 mg/L,~321 mg/L,active,–
O=C(NC(=O)c1c(F)cccc1F)Nc1ccc(Cl)cc1 [Diflubenzuron],100%,520.0 mg/L,100%,1540.5 mg/L,45.2 mg/L,144 mg/L,–,45.2 mg/L

# — patent US12171232B1, “N-[(4,6-dimethylpyrimidin-2-yl)carbamothioyl] pyridine-3-carboxamide as an eco-friendly insecticidal agent against Spodoptera littoralis (boisd.)” (KING FAISAL UNIVERSITY, priority 2023, dated 2024)
